Measurements reported in ChEMBL document CHEMBL4811258, “Potent Antimalarials with Development Potential Identified by Structure-Guided Computational Optimization of a Pyrrole-Based Dihydroorotate Dehydrogenase Inhibitor Series” (J Med Chem, 2021).
pEC50, pIC50: −log10 of the molar value. ≈ marks a conversion by molar mass, not a printed value.

Legend:
[1] = Inhibition of Plasmodium falciparum DHODH expressed in Escherichia coli BL21-DE3 using L-dihydroorotate as substrate by steady-state DCIP method
[2] = Inhibition of Plasmodium vivax DHODH expressed in Escherichia coli BL21-DE3 using L-dihydroorotate as substrate by steady-state DCIP method
[3] = target: Dihydroorotate dehydrogenase (quinone), mitochondrial (Rattus norvegicus, UniProt Q63707); assay: Inhibition of rat DHODH up to 100 uM; conditions: up to 100 µM
Sequence of Dihydroorotate dehydrogenase (quinone), mitochondrial (Rattus norvegicus, UniProt Q63707) (Q63707 whole entry): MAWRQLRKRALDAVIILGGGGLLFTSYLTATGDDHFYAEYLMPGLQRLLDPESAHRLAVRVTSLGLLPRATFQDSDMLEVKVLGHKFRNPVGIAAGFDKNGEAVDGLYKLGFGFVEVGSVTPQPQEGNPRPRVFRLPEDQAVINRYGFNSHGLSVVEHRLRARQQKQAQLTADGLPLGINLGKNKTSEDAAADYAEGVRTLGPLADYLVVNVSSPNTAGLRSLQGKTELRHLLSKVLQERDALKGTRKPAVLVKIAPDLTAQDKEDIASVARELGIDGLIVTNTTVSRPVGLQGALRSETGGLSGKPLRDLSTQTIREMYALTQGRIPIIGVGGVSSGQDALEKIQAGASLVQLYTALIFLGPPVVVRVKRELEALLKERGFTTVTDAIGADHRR

[4] = target: Dihydroorotate dehydrogenase (quinone), mitochondrial (Mus musculus, UniProt O35435); assay: Inhibition of mouse DHODH up to 100 uM; conditions: up to 100 µM
Sequence of Dihydroorotate dehydrogenase (quinone), mitochondrial (Mus musculus, UniProt O35435) (O35435 whole entry): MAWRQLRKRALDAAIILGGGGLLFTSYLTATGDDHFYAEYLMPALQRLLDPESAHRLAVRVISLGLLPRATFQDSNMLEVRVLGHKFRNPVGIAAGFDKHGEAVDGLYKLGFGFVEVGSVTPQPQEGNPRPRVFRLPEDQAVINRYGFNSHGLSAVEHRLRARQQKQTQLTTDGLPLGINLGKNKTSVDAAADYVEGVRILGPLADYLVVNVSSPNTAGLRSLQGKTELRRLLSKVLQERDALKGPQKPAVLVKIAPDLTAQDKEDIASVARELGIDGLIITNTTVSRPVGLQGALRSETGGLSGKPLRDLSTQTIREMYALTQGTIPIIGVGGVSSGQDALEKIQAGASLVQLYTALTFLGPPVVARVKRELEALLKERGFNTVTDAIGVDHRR

[5] = Inhibition of dog DHODH up to 100 uM; parameters: species or system Canis lupus familiaris; conditions: up to 100 µM
[6] = system: L1210; assay: Cytotoxicity against mouse L1210 cells; type: cell-based
[7] = system: HepG2; assay: Cytotoxicity against human HepG2 cells; type: cell-based
[8] = target: Albumin (Bos taurus, UniProt P02769); assay: Binding affinity to bovine serum albumin by Albumax assay; type: ADME; conditions: cattle, isolated protein
Sequence of Albumin (P02769 whole entry): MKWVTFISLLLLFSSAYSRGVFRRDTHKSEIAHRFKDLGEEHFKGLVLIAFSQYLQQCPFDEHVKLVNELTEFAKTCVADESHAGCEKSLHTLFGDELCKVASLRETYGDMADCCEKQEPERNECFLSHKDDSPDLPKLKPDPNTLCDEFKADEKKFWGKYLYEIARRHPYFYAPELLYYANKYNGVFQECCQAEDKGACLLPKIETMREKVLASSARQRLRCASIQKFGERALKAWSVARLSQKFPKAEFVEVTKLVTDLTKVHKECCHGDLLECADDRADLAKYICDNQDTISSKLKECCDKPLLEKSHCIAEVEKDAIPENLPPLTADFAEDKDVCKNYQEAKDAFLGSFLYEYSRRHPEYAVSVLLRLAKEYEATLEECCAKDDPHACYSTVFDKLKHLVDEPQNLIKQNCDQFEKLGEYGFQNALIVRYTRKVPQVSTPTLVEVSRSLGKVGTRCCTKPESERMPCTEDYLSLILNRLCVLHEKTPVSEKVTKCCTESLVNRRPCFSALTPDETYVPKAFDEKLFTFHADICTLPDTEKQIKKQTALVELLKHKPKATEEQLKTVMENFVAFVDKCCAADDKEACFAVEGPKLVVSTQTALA

[9] = Binding affinity to microsome (unknown origin); type: ADME; conditions: microsomes
[10] = Intrinsic clearance in mouse liver microsomes at 1 uM measured up to 4 hrs by LC-MS analysis; type: ADME, Microsome
[11] = Unbound intrinsic clearance in mouse liver microsomes at 1 uM measured up to 4 hrs by LC-MS analysis; type: ADME, Microsome
[12] = Half life in Swiss mouse at 20 mg/kg, po measured up to 24 hrs by LC-MS analysis; type: ADME, organism-based; conditions: in vivo
[13] = Tmax in Swiss mouse at 20 mg/kg, po measured up to 24 hrs by LC-MS analysis; type: ADME, organism-based; conditions: in vivo
[14] = Cmax in Swiss mouse at 20 mg/kg, po measured up to 24 hrs by LC-MS analysis; type: ADME, organism-based; parameters: route oral, dose 20 mg/kg, time <=24; conditions: in vivo
[15] = AUC (0 to infinity) in Swiss mouse at 20 mg/kg, po measured up to 24 hrs by LC-MS analysis; type: ADME, organism-based; parameters: route oral, dose 20 mg/kg, time <=24; conditions: in vivo
[16] = Plasma clearance in Sprague-Dawley rat at […], iv measured up to 24 hrs; type: ADME, organism-based
[17] = Volume of distribution at steady state in Sprague-Dawley rat at […], iv measured up to 24 hrs; type: ADME, organism-based; conditions: in vivo, read-out: Vdss
[18] = Apparent half life in Sprague-Dawley rat at 31 mg/kg, po measured up to 24 hrs; type: ADME, organism-based; conditions: in vivo, read-out: t1/2(app) (converted)
[19] = Tmax in Sprague-Dawley rat at 31 mg/kg, po measured up to 24 hrs; type: ADME, organism-based; conditions: in vivo
[20] = Cmax in Sprague-Dawley rat at 31 mg/kg, po measured up to 24 hrs; type: ADME, organism-based; parameters: route oral, dose 31 mg/kg, time <=24; conditions: in vivo
[21] = AUC (0 to infinity) in Sprague-Dawley rat at 31 mg/kg, po measured up to 24 hrs; type: ADME, organism-based; parameters: route oral, dose 31 mg/kg, time <=24; conditions: in vivo
[22] = Oral bioavailability in Sprague-Dawley rat at 31 mg/kg measured up to 24 hrs; type: ADME, organism-based; conditions: in vivo
[23] = system: Plasmodium falciparum; assay: Antiplasmodial activity against asexual blood stage chloroquine and pyrimethamine-resistant Plasmodium falciparum Dd2 infected in human erythrocytes assessed as parasite killing; type: functional, organism-based
[24] = system: Plasmodium falciparum
[25] = target: T1, Cytochrome P450 2B6 (Homo sapiens, UniProt P20813)
T1 sequence (P20813 whole entry): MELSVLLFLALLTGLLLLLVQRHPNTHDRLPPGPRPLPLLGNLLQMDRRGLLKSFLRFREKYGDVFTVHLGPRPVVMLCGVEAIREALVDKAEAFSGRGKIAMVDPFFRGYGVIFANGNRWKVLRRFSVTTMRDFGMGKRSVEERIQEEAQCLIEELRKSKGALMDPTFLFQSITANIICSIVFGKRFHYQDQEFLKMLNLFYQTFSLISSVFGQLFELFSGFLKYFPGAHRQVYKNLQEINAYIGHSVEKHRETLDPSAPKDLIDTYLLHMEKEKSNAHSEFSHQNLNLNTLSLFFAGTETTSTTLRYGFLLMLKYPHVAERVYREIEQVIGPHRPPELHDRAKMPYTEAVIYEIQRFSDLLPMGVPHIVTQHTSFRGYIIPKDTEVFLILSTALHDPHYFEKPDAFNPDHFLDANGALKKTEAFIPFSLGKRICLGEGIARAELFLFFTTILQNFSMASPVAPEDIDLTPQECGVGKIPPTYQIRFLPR

[26] = target: T2, Cytochrome P450 2C8 (Homo sapiens, UniProt P10632)
T2 sequence (P10632 whole entry): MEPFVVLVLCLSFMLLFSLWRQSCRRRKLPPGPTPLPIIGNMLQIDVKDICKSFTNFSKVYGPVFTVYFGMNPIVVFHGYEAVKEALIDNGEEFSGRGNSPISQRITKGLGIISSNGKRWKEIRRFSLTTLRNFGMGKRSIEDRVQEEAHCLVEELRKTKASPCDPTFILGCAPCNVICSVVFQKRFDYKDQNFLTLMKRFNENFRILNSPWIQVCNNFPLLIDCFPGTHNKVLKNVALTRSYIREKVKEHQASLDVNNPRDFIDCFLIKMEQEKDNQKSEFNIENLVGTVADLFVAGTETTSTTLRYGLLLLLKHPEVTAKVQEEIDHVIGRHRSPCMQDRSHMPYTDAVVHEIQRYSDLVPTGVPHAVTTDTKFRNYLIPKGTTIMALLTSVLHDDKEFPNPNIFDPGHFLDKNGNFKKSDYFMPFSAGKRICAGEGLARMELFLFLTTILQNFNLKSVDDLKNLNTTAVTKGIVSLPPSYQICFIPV

[27] = target: Cytochrome P450 3A4 (Homo sapiens, UniProt P08684)
Sequence of Cytochrome P450 3A4 (P08684 whole entry): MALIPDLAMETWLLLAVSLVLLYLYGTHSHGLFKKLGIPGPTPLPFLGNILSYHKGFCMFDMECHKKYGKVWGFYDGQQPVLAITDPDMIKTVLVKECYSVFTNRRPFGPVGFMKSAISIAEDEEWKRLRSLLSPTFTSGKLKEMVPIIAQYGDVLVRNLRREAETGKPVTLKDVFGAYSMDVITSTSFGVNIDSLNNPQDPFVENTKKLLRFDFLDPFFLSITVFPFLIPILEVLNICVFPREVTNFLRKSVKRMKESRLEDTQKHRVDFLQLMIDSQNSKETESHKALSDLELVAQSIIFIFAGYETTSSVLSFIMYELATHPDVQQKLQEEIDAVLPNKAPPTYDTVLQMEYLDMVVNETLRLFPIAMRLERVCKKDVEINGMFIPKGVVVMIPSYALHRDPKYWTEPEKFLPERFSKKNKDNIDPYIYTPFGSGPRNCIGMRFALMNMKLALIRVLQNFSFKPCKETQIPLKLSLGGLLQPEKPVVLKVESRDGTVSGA

[28] = buffer, pH 1.6, 1 h
[29] = simulated gi fluid, pH 6.5, 5 h
[30] = simulated gi fluid, pH 5.8, 5 h
[31] = buffer, pH 7.4, 5 h
[32] = human, plasma
[33] = rat, plasma
[34] = mouse, plasma
[35] = in vitro; conditions: rat, blood and plasma
[36] = in vitro; conditions: mouse, blood and plasma
[37] = Apparent half life in Sprague-Dawley rat at 32 mg/kg, po measured up to 24 hrs; type: ADME, organism-based; conditions: in vivo, read-out: t1/2(app) (converted)
[38] = Tmax in Sprague-Dawley rat at 32 mg/kg, po measured up to 24 hrs; type: ADME, organism-based; conditions: in vivo
[39] = Cmax in Sprague-Dawley rat at 32 mg/kg, po measured up to 24 hrs; type: ADME, organism-based; parameters: route oral, dose 32 mg/kg, time <=24; conditions: in vivo
[40] = AUC (0 to infinity) in Sprague-Dawley rat at 32 mg/kg, po measured up to 24 hrs; type: ADME, organism-based; parameters: route oral, dose 32 mg/kg, time <=24; conditions: in vivo
[41] = Oral bioavailability in Sprague-Dawley rat at 32 mg/kg measured up to 24 hrs; type: ADME, organism-based; conditions: in vivo
[42] = system: Plasmodium falciparum; assay: Antiplasmodial activity against asexual blood stage Plasmodium falciparum D10 expressing yeast DHODH infected in human erythrocytes assessed as parasite killing; type: functional, organism-based
[43] = system: Plasmodium falciparum; assay: Antiplasmodial activity against asexual blood stage Plasmodium falciparum D10 expressing yeast DHODH infected in human erythrocytes assessed as parasite killing in presence of proguanil; type: functional, organism-based
[44] = system: Plasmodium falciparum; assay: Antiplasmodial activity against Plasmodium falciparum 3D7 Uganda infected in human erythrocytes assessed as parasite killing using albumax media measured after 72 hrs by SYBR Green assay; type: functional, organism-based; conditions: 3D7, 72 h
[45] = system: Plasmodium falciparum; assay: Antiplasmodial activity against Plasmodium falciparum Dd2 Uganda infected in human erythrocytes assessed as parasite killing using albumax media measured after 72 hrs by SYBR Green assay; type: functional, organism-based; conditions: Dd2, 72 h
[46] = system: Plasmodium falciparum; assay: Antiplasmodial activity against Plasmodium falciparum Uganda field isolated from patients infected in human erythrocytes assessed as parasite killing using albumax media measured after 72 hrs by SYBR Green assay; type: functional, organism-based
[47] = Plasma clearance in Swiss mouse at […], iv measured up to 24 hrs by LC-MS analysis; type: ADME, organism-based; conditions: dose 2.8 mg/kg
[48] = Volume of distribution at steady state in Swiss mouse at […], iv measured up to 24 hrs by LC-MS analysis; type: ADME, organism-based; conditions: in vivo, dose 2.8 mg/kg, read-out: Vdss
[49] = Oral bioavailability in Swiss mouse at 20 mg/kg measured up to 24 hrs by LC-MS analysis; type: ADME, organism-based; conditions: in vivo
[50] = Apparent half life in Sprague-Dawley rat at 28 mg/kg, po measured up to 24 hrs; type: ADME, organism-based; conditions: in vivo, read-out: t1/2(app) (converted)
[51] = Tmax in Sprague-Dawley rat at 28 mg/kg, po measured up to 24 hrs; type: ADME, organism-based; conditions: in vivo
[52] = Cmax in Sprague-Dawley rat at 28 mg/kg, po measured up to 24 hrs; type: ADME, organism-based; parameters: route oral, dose 28 mg/kg, time <=24; conditions: in vivo
[53] = AUC (0 to infinity) in Sprague-Dawley rat at 28 mg/kg, po measured up to 24 hrs; type: ADME, organism-based; parameters: route oral, dose 28 mg/kg, time <=24; conditions: in vivo
[54] = Oral bioavailability in Sprague-Dawley rat at 28 mg/kg measured up to 24 hrs; type: ADME, organism-based; conditions: in vivo
[55] = system: Plasmodium berghei; assay: Antiplasmodial activity against liver stage Plasmodium berghei berghei-ANKA-GFP-Luc-SMCON (Pb-Luc) assessed as parasite killing infected in HepG2-A16-CD8IEGF cells; type: functional, organism-based
[56] = human, caco-2, pH 7.4
[57] = human, caco-2, pH 7.4; remark: listed apart in the source

SMILES	pIC50 [1]	pIC50 [2]	inhibition (INH) [3]	inhibition (INH) [4]	inhibition (INH) [5]	Activity [6]	Activity [7]	Activity [8] [%]	Activity [9] [%]	Intrinsic clearance [10] [µL/min/mg]	CL free [11] [µL/min/mg]	half-life [12] [h]	Tmax [13] [h]	Cmax [14] [µM]	AUC(0-inf) [15] [µM·h]	pEC50 [23]	pEC50 [24]	PPB [32] [%]	PPB [33] [%]	PPB [34] [%]	other results
Cc1c(Cc2ccc(C(F)(F)F)nc2)c[nH]c1C(=O)NC(C)c1cn[nH]c1 (stereo in doubt; form 1)	7.33	7.37	Not Active	Not Active	Not Active	Non-Toxic	Non-Toxic	49.5	40.5	31	52	4.4	1	6.4	65	8.62	8.35	84	91.4	92.1	clearance at 24 h ([16]; dose 2.9 mg/kg): 6.2 mL/min/kg; Vd at 24 h ([17]; dose 2.9 mg/kg): 1.7 L/kg; half-life [18]: 3.4 h; Tmax [19]: 3 h; Cmax [20]: 2.4 µM; AUC(0-inf) [21]: 22 µM·h; bioavailability [22]: 10%; IC50 [25]: > 20000 nM; IC50 [26]: 18300 nM; TDI [27]: Active; solubility [28]: 81 µg/mL (≈ 215 µM); solubility [29]: 34 µg/mL (≈ 90.1 µM); solubility [30]: 81 µg/mL (≈ 215 µM); solubility [31]: 23 µg/mL (≈ 60.9 µM); blood plasma ratio [35]: 1.3; blood plasma ratio [36]: 1.4
Cc1c(Cc2ccc(C(F)(F)F)nc2)c[nH]c1C(=O)NC(C)c1cnn(C)c1 (stereo in doubt; form 1)	7.34	8.41	Not Active	Not Active	Not Active	Non-Toxic	Non-Toxic	49.5	44.8	41	75	3.5	1	36	217			83	95.1	93.6	clearance at 24 h ([16]; dose 2.8 mg/kg): 2.4 mL/min/kg; Vd at 24 h ([17]; dose 2.8 mg/kg): 0.87 L/kg; half-life [37]: 3.7 h; Tmax [38]: 3.5 h; Cmax [39]: 35 µM; AUC(0-inf) [40]: 360 µM·h; bioavailability [41]: 61%; pEC50 [42]: < 5.00; pEC50 [43]: < 5.00; pEC50 [44]: 8.21; pEC50 [45]: 8.23; pEC50 [46]: 8.01; IC50 [26]: > 20000 nM; TDI [27]: Not Active; solubility [28]: 113 µg/mL (≈ 289 µM); solubility [29]: 60 µg/mL (≈ 153 µM); solubility [30]: 158 µg/mL (≈ 404 µM)
Cc1cc(C(C)NC(=O)c2[nH]cc(Cc3ccc(C(F)(F)F)nc3)c2C)no1 (stereo in doubt; form 1)		8.14	Not Active	Not Active	Not Active	Non-Toxic	Non-Toxic	75	43.3	63	111	2.3	1	13	66	8.06	8.03	94.7	93.7	92.2	clearance at 24 h [47]: 7.7 mL/min/kg; Vd at 24 h [48]: 1.4 L/kg; bioavailability [49]: 61%; half-life [50]: 4.1 h; Tmax [51]: 4.3 h; Cmax [52]: 16 µM; AUC(0-inf) [53]: 160 µM·h; bioavailability [54]: 43%; pEC50 [55]: 8.08; Papp [56]: 48 10^-6 cm/s; Papp [57]: 57 10^-6 cm/s
